Measured values taken from the NIST ThermoML archive (doi:10.1021/acs.jced.7b00106).
± gives the expanded uncertainty stated by the source.

Conditions: Liquid, Hot wire method

FC(F)(F)/C=C/Cl [(E)-1-chloro-3,3,3-trifluoroprop-1-ene]
Conditions | thermal conductivity [W/m/K]
263.11 K, 10284 kPa | 0.09779 ± 0.0036
263.11 K, 15941 kPa | 0.1 ± 0.0031
263.12 K, 275 kPa | 0.09368 ± 0.0028
263.12 K, 5037 kPa | 0.09578 ± 0.0032
263.3 K, 65213 kPa | 0.1155 ± 0.0043
263.31 K, 42853 kPa | 0.1092 ± 0.0037
263.34 K, 36413 kPa | 0.1071 ± 0.0032
263.35 K, 59142 kPa | 0.1143 ± 0.0054
263.39 K, 51112 kPa | 0.1115 ± 0.0034
263.4 K, 29224 kPa | 0.1049 ± 0.0032
263.45 K, 22281 kPa | 0.1026 ± 0.0034
263.48 K, 65190 kPa | 0.115 ± 0.0043
263.49 K, 15926 kPa | 0.1002 ± 0.0047
263.5 K, 10264 kPa | 0.0981 ± 0.0046
263.5 K, 42848 kPa | 0.1085 ± 0.0034
263.52 K, 5059 kPa | 0.09603 ± 0.0038
263.53 K, 267 kPa | 0.09392 ± 0.0032
263.53 K, 36413 kPa | 0.1068 ± 0.0034
263.54 K, 59138 kPa | 0.1137 ± 0.0039
263.58 K, 51103 kPa | 0.1112 ± 0.0038
263.59 K, 29225 kPa | 0.1044 ± 0.0032
263.64 K, 22275 kPa | 0.1022 ± 0.0039
263.7 K, 15944 kPa | 0.09988 ± 0.0034
263.71 K, 10281 kPa | 0.09774 ± 0.003
263.73 K, 5041 kPa | 0.09557 ± 0.0033
263.75 K, 278 kPa | 0.09344 ± 0.0035
263.84 K, 65191 kPa | 0.1154 ± 0.0036
263.88 K, 42851 kPa | 0.1087 ± 0.0035
263.91 K, 36412 kPa | 0.1071 ± 0.0036
263.95 K, 51092 kPa | 0.1113 ± 0.0042
263.98 K, 29226 kPa | 0.1045 ± 0.004
264.05 K, 65174 kPa | 0.1149 ± 0.0038
264.1 K, 42852 kPa | 0.1085 ± 0.0033
264.11 K, 59122 kPa | 0.1132 ± 0.0058
264.13 K, 36411 kPa | 0.1066 ± 0.0043
264.17 K, 51091 kPa | 0.1108 ± 0.0044
264.21 K, 29227 kPa | 0.1042 ± 0.0038
281.25 K, 20968 kPa | 0.09541 ± 0.022
281.29 K, 10961 kPa | 0.09337 ± 0.0087
281.3 K, 3101 kPa | 0.08933 ± 0.003
281.3 K, 6243 kPa | 0.09051 ± 0.0061
281.31 K, 203 kPa | 0.08831 ± 0.0064
281.31 K, 16036 kPa | 0.09555 ± 0.0064
281.32 K, 20959 kPa | 0.09554 ± 0.0041
281.36 K, 10962 kPa | 0.09248 ± 0.0068
281.38 K, 3093 kPa | 0.0889 ± 0.0029
281.38 K, 6225 kPa | 0.09019 ± 0.0045
281.39 K, 193 kPa | 0.08772 ± 0.0054
281.61 K, 39518 kPa | 0.1031 ± 0.0039
281.62 K, 46215 kPa | 0.1057 ± 0.0032
281.62 K, 55364 kPa | 0.1084 ± 0.0033
281.64 K, 16024 kPa | 0.09394 ± 0.0069
281.64 K, 33249 kPa | 0.1009 ± 0.0057
281.64 K, 64739 kPa | 0.1107 ± 0.0045
281.65 K, 20972 kPa | 0.09689 ± 0.0067
281.65 K, 27078 kPa | 0.0987 ± 0.0031
281.7 K, 10959 kPa | 0.09251 ± 0.0069
281.71 K, 39517 kPa | 0.103 ± 0.0041
281.71 K, 55366 kPa | 0.1082 ± 0.004
281.72 K, 6236 kPa | 0.09039 ± 0.0029
281.72 K, 46217 kPa | 0.1053 ± 0.0033
281.73 K, 3096 kPa | 0.08936 ± 0.0039
281.73 K, 33252 kPa | 0.1011 ± 0.0032
281.73 K, 64721 kPa | 0.1106 ± 0.0042
281.74 K, 201 kPa | 0.08787 ± 0.0061
281.75 K, 16022 kPa | 0.09421 ± 0.0077
281.75 K, 20962 kPa | 0.09616 ± 0.0055
281.75 K, 27071 kPa | 0.09865 ± 0.0038
281.8 K, 10956 kPa | 0.0923 ± 0.0029
281.83 K, 6219 kPa | 0.09017 ± 0.0027
281.85 K, 185 kPa | 0.08733 ± 0.0031
281.85 K, 3101 kPa | 0.08903 ± 0.0037
282.03 K, 55362 kPa | 0.1085 ± 0.0044
282.04 K, 64705 kPa | 0.1107 ± 0.0034
282.05 K, 39515 kPa | 0.1034 ± 0.0032
282.05 K, 46209 kPa | 0.1055 ± 0.0038
282.08 K, 33242 kPa | 0.1012 ± 0.0031
282.1 K, 27075 kPa | 0.09876 ± 0.003
282.11 K, 16012 kPa | 0.09449 ± 0.0041
282.11 K, 20964 kPa | 0.09638 ± 0.0036
282.15 K, 46205 kPa | 0.1054 ± 0.0038
282.15 K, 55358 kPa | 0.108 ± 0.0044
282.15 K, 64700 kPa | 0.1104 ± 0.0034
282.16 K, 39512 kPa | 0.103 ± 0.0031
282.18 K, 10959 kPa | 0.09237 ± 0.0029
282.2 K, 33255 kPa | 0.101 ± 0.0031
282.21 K, 6234 kPa | 0.09065 ± 0.0029
282.22 K, 3104 kPa | 0.08891 ± 0.003
282.23 K, 27070 kPa | 0.09861 ± 0.0031
282.24 K, 198 kPa | 0.08741 ± 0.0029
282.24 K, 16024 kPa | 0.0943 ± 0.0032
282.24 K, 20959 kPa | 0.09631 ± 0.0037
282.31 K, 10962 kPa | 0.09207 ± 0.0028
282.35 K, 6225 kPa | 0.09024 ± 0.0028
282.37 K, 3126 kPa | 0.08877 ± 0.0027
282.38 K, 188 kPa | 0.08744 ± 0.0032
282.5 K, 55349 kPa | 0.108 ± 0.0051
282.5 K, 64686 kPa | 0.1105 ± 0.0035
282.52 K, 39509 kPa | 0.103 ± 0.0034
282.52 K, 46199 kPa | 0.1053 ± 0.0032
282.57 K, 33243 kPa | 0.101 ± 0.0038
282.6 K, 27082 kPa | 0.09879 ± 0.003
282.62 K, 16026 kPa | 0.09446 ± 0.0029
282.62 K, 20964 kPa | 0.09651 ± 0.003
282.63 K, 64675 kPa | 0.1105 ± 0.0035
282.64 K, 55348 kPa | 0.1078 ± 0.0035
282.67 K, 39508 kPa | 0.103 ± 0.0032
282.67 K, 46193 kPa | 0.105 ± 0.0034
282.71 K, 10958 kPa | 0.09238 ± 0.0028
282.73 K, 33247 kPa | 0.1009 ± 0.0032
282.75 K, 6236 kPa | 0.09029 ± 0.0034
282.75 K, 27089 kPa | 0.09858 ± 0.003
282.78 K, 3125 kPa | 0.08898 ± 0.0028
282.78 K, 20962 kPa | 0.09627 ± 0.0031
282.79 K, 16015 kPa | 0.09427 ± 0.003
282.8 K, 194 kPa | 0.08765 ± 0.0027
282.88 K, 10957 kPa | 0.09201 ± 0.0028
282.92 K, 6218 kPa | 0.09006 ± 0.0027
282.95 K, 3110 kPa | 0.08875 ± 0.0028
282.97 K, 194 kPa | 0.08733 ± 0.0028
282.99 K, 64664 kPa | 0.1105 ± 0.0034
283 K, 55335 kPa | 0.1078 ± 0.0033
283.04 K, 46194 kPa | 0.1053 ± 0.0032
283.06 K, 39510 kPa | 0.1032 ± 0.0031
283.12 K, 33245 kPa | 0.1008 ± 0.0031
283.15 K, 64649 kPa | 0.1103 ± 0.0033
283.16 K, 27095 kPa | 0.09871 ± 0.003
283.18 K, 20963 kPa | 0.09653 ± 0.0031
283.18 K, 55341 kPa | 0.1078 ± 0.0034
283.21 K, 16028 kPa | 0.09435 ± 0.0034
283.21 K, 46185 kPa | 0.105 ± 0.0032
283.24 K, 39508 kPa | 0.103 ± 0.0031
283.29 K, 10953 kPa | 0.09216 ± 0.0028
283.29 K, 33245 kPa | 0.1006 ± 0.0032
283.34 K, 27084 kPa | 0.09839 ± 0.0034
283.35 K, 6234 kPa | 0.09024 ± 0.0033
283.38 K, 3103 kPa | 0.08892 ± 0.0028
283.38 K, 20960 kPa | 0.09617 ± 0.0031
283.39 K, 16020 kPa | 0.09411 ± 0.0032
283.42 K, 178 kPa | 0.08755 ± 0.0027
283.5 K, 10953 kPa | 0.09198 ± 0.0028
283.54 K, 64641 kPa | 0.1105 ± 0.0035
283.55 K, 6234 kPa | 0.08992 ± 0.003
283.57 K, 55328 kPa | 0.108 ± 0.0033
283.59 K, 3103 kPa | 0.08855 ± 0.0033
